pIC50: −log10 of the molar value. ≈ marks a conversion by molar mass, not a printed value. Entries after “also recorded” stand apart in the source; their conditions may differ. One block for each molecule: values may come before it.
Key:
Aqueous solubility = conditions: phosphate buffer, pH 7.4, aqueous buffer
Description: Solubility Determinations (Independently Performed by Pharmaron Inc., Ninqbo, CN)
Test compounds and control compounds (progesterone or diclofenac) were initially prepared as 10 mM DMSO stock solutions. […] After such time, plugs and stir sticks were removed and the samples from the solubility sample plate were transferred into the filter plate. All the samples were then filtered and 5 μL of filtrate was taken and added along with 5 μL of DMSO and 490 μL of a 1:1 (v/v) mixture of H2O and acetonitrile containing internal standard (100 nM alprazolam, 200 nM Caffeine and 100 nM tolbutamide) to the plate yielding a final concentration of 3 μM. The samples were then analyzed by LC-MS and diluted according to the peak shape with ultrapure water.
Filtrate was analyzed and quantified against a standard of known concentration using LC coupled with MS peak identification and quantitation. Solubility values of test compounds and progesterone were calculated as follows and are presented as the mean of n=2 replicates: […]

[1] = Plasma protein binding by equilibrium dialysis, human plasma; format: in vitro ADME
Description: (§1) Plasma Protein Binding by Equilibrium Dialysis (Independently Performed by Pharmaron Inc., Ninqbo, CN)
(§2) Initially, 1 mM solutions of test compounds and the control compound (Ketoconzaole) were prepared in DMSO. After this, dialysis membranes were soaked in ultrapure water for 60 min to separate strips, followed by 20% aq. ethanol for 20 min, and finally in a dialysis buffer for 20 min. […] After this, 597 μL of blank plasma solution followed by 3 μL of the working solutions of either test compounds or control compound were added to a new plastic plate or separate plastic tube and the solutions were vortexed at 1,000 rpm for 2 min. Immediately after this, 50 μL of spiked plasma solution suspension was transferred to a 96-well plate to act as T=0 control. The remaining samples were treated in the same manner, whereby all remaining spiked plasma solutions were added to the incubator for the duration of the study.
(§3) Cells were then loaded with 120 μL of the plasma samples and dialyzed against an equal volume of dialysis buffer (PBS). […] At the end of incubation, the lid was removed and 50 μL of post-dialysis samples were removed from both buffer and plasma solution chambers into a separate 96-well plate for analysis. The plasma solutions (50 μL) were then added to the buffer samples along with an equal volume of PBS (50 μL) to the collected plasma solution samples. The plate was shaken at 1,000 rpm for 2 min and 400 μL of acetonitrile containing an appropriate internal standard was added to precipitate protein and release compound. The samples were then vortexed at 1,000 rpm for an additional 10 min followed by centrifugation at 3,220 g for 30 min. Supernatant (250 μL) was then added to a new 96-well plate and centrifuged again at 3,220 g for 30 min and 100 μL of this supernatant was then added to a new 96-well plate for analysis. The samples were analyzed by LC-MS/MS and 100 μL of distilled water was added to each sample prior to analysis.
(§4) Concentrations of test compounds and control compound in buffer and plasma solution chambers was determined and percentages of test compounds and control compound bound using the following equations (mean of n=2 replicates): […]

[2] = Plasma protein binding by equilibrium dialysis, rat plasma; format: in vitro ADME
Description: as §1, §2
as §3, with “Supernatant (250 μL) was then added to a new 96-well plate and centrifuged again at 3,220 g for 30 min and 100 μL of this supernatant was then added to a new 96-well plate for analysis.” left out
as §4

[3] = Metabolic stability in human liver microsomes; format: in vitro ADME; conditions: human
Description: (§5) Metabolic Stability in Liver Microsomes (Independently Performed by Pharmaron Inc., Ninqbo, CN)
(§6) This experiment was carried out under two separate set of conditions: i) with Cofactors (NADPH), which consisted of adding 25 μL of 10 mM NADPH to the incubations, giving a final NADPH concentration of 1 mM, and ii) without Cofactors (NADPH), which consisted of adding 25 μL of 100 mM phosphate buffer to the incubations. Under both sets of conditions, the final concentration of microsomes were 0.5 mg/mL. […] Samples were then centrifuged at 3,220 g for 40 min and aliquots of 100 μL of the supernatant were mixed with 100 μL of ultra-pure H2O and analyzed by LC-MS/MS.
(§7) Peak areas were determined from extracted ion chromatograms. The slope value, k, was determined by linear regression of the natural logarithm of the remaining percentage of the parent drug vs incubation time curve.

[4] = Metabolic stability in rat liver microsomes; format: in vitro ADME; conditions: rat
Description: as §5, §6, §7

[5] = Metabolic stability in human hepatocytes
Description: Metabolic Stability in Hepatocytes (Independently Performed by Pharmaron Inc., Ninqbo, CN)
After thawing was complete, hepatocytes were transferred into a 50 mL conical tube containing thawing medium and the tube was then placed into a centrifuge and spun at 100 g for 10 min. […] Using AO/PI staining, cells were counted to determine the viable cell density. […] Subsequently, 2 μL of the 100 μM test compounds or control compound solutions was transferred into the respective wells of the 96-well non-coated plate to start the reaction. […] Aliquots of 100 μL of the supernatant were then diluted by 100 μL of ultra-pure water, and the mixture was analyzed by LC-MS/MS.
All calculations were carried out using Microsoft Excel. Peak areas were determined from extracted ion chromatograms. The in-vitro half-life (t1/2) of parent compound was determined by regression of the percent parent disappearance vs. time curve.

[6] = Metabolic stability in rat hepatocytes; format: in vitro ADME; conditions: rat
Description: All calculations were carried out using Microsoft Excel. Peak areas were determined from extracted ion chromatograms.

Molt-4 cells = experiment: In vitro CTG antiproliferative assay, Molt-4; format: cell-based; conditions: for pIC50: Homo sapiens, Molt-4 (BCR-ABL1−), 72 h
Description: (§8) In Vitro CTG Assay (Independently Performed By: Crown Bioscience, Taicanq, CN)
(§9) Cells listed in the table above were initially harvested during logarithmic growth period followed by re-suspension and counting using a Vi cell counter (cell viability was measured by trypan blue exclusion assay). Cells were then diluted and 90 μL cell suspensions were added to 96-well plates. Plates were then incubated overnight in a humidified incubator at 37° C. with 5% CO2. To(Time 0) plate was then taken by 10 μL of culture medium being added to each well followed by 50 μL CellTiter-Glo® Reagent being added. The contents were then mixed for 2 min on an orbital shake to facilitate cell lysis. Next, the plate was incubated at room temperature for 10 min to stabilize luminescent signal. Blackseal black sticker was placed to the bottom of each plate and the luminescence was recorded using EnVision multi label reader. Test compounds and 10 μL of each 10× compound working solutions was added according to the plate inoculation map. Plates were then placed back into the incubator and after 72 h, 50 μL CellTiter-Glo® was added to each well. Contents were then mixed for 2 min on an orbital shaker to facilitate cell lysis. The plate then was incubated at room temperature for 10 min to stabilize luminescent signal. Blackseal black sticker was placed to the bottom of each plate and the luminescence recorded using EnVision multi label reader.
Relative IC50 was calculated with a dose-response curve fitted using nonlinear regression model with a sigmoidal dose response on GraphPad Prism version 9.5.1. […] The formula for calculating survival rate was (n=3 replicates): […]

K562 cells = experiment: Cell viability assay, K562; format: cell-based
[7] = test system: P-glycoprotein (P-gp) and/or breast cancer resistance protein (BCRP); conditions: cited from earlier work
[8] = LogD7.4 by shake flask method; conditions: octanol/phosphate buffer, pH 7.4
BCR-ABL1 T315I = molecular target: T1, BCR-ABL1 T315I (Homo sapiens, UniProt P00519, T315I); experiment: KinaseProfiler radiometric kinase assay, BCR-ABL1 T315I; format: biochemical; conditions: gatekeeper mutation
T1 construct: BCR (fusion partner, as the printed name BCR-ABL1 says)

mutant BCR-ABL1 = experiment: KinaseProfiler radiometric kinase assay, mutant BCR-ABL1 kinases as a group; format: biochemical, human; conditions: read-out: IC50 against (imatinib resistant / relevant) mutant BCR-ABL1 kinases; group of mutants
From the text: Biochemical Human RTK Kinase Enzymatic Radiometric Assay, KinaseProfiler (Independently Performed by Eurofins Cerep SA, FR)

KU812 cells = experiment: In vitro CTG antiproliferative assay, KU812; format: cell-based; conditions: KU812, 72 h
MEG-01 cells = experiment: In vitro CTG antiproliferative assay, MEG-01; format: cell-based; conditions: MEG-01, 72 h
Description: as §8
as §9, with “Plates were then placed back into the incubator and after 72 h, 50 μL CellTiter-Glo® was added to each well. Contents were then mixed for 2 min on an orbital shaker to facilitate cell lysis. The plate then was incubated at room temperature for 10 min to stabilize luminescent signal.” left out
Relative IC50 was calculated with a dose-response curve fitted using nonlinear regression model with a sigmoidal dose response on GraphPad Prism version 9.5.1. […]

SUP-B15 cells = experiment: In vitro CTG antiproliferative assay, SUP-B15; format: cell-based; conditions: SUP-B15, 72 h
CHO-K1 cells = conditions: +/− S9; 0.2-500 μM

- solubility kinetic at 2 h (Aqueous solubility): 14 µM (≈ 7.43 µg/mL)
- % Bound ([1]; human plasma, 360 min, 5 µM): 95.47%
- % Unbound ([1]; human plasma, 360 min, 5 µM): 4.52%
- fu, plasma % ([1]; human, 5 μM, 360 min): 4.5%
- fu, plasma % ([2]; 5 μM, 360 min): 7.2%
- stability in liver microsomes, in words [3]: significant degradation
- stability in liver microsomes, in words [4]: significant degradation
- stability in hepatocytes, in words [5]: comparably enhanced stability
- remaining at 0.5 min ([5]; hepatocytes): 100%
- remaining at 0.5 h ([5]; hepatocytes): 79.3%
- remaining at 1 h ([5]; hepatocytes): 54%
- remaining at 2 h ([5]; hepatocytes): 20.7%
- stability in hepatocytes, in words [6]: comparably enhanced stability
- pIC50 (Molt-4 cells): < 5.70
- logD [8]: 3.1
SMILES: COc1cc(Nc2c(C#N)cnc3cc(OCCCN4CCN(C)CC4)c(OC)cc23)c(Cl)cc1Cl [Bosutinib, bosutinib, reference compound]
- plasma protein binding, in words ([1]; human): comparable unbound plasma protein fraction
- plasma protein binding, in words [2]: comparable unbound plasma protein fraction
- antiproliferative activity, in words (K562 cells): picomolar activity
- efflux transporter substrate (background) [7]: P-gp substrates; also recorded: potent substrates for efflux transporters

- activity against BCR-ABL1 T315I, in words (BCR-ABL1 T315I): slightly reduced activity
- pIC50 (mutant BCR-ABL1): > 9.00
- pIC50 (Molt-4 cells): < 5.70
SMILES: COc1cc(Nc2c(C#N)cnc3cc(OCCON4CCN(C)CC4)c(OC)cc23)c(Cl)cc1Cl [Compound 7, 4-((2,4-dichloro-5-methoxyphenyl)amino)-6-methoxy-7-(2-((4-methylpiperazin-1-yl)oxy)ethoxy)quinoline-3-carbonitrile]
- antiproliferative activity, in words (KU812 cells): potent antiproliferative activity; also recorded: excellent antiproliferative activity
- antiproliferative activity, in words (MEG-01 cells): potent antiproliferative activity; also recorded: excellent antiproliferative activity
- antiproliferative activity, in words (SUP-B15 cells): reduced activity
- antiproliferative activity, in words (Molt-4 cells; Molt-4, 72 h): minimal activity
- Micronucleus result (CHO-K1 cells): neither mutagenic nor genotoxic; also recorded: Negative
